Among the test systems are OVCAR-8 ovarian; NCI/ADR-RES ovarian; HL-60(TB) leukemia; HCC-2998 colon; HS 578T breast; HOP-92 NSCLC; MDA-MB-435; IGROV1 ovarian.
Holding throughout (experiment): DTP human tumour cell line panel, 48 h

Several values for one entry are separate records, joined by “and”; a condition that tells them apart may be missing. Identical values can stand only once.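 48-hour exposure; five concentrations; linearly interpolated endpoints. GI50: concentration for 50% inhibition of growth. At the TGI there is no net growth.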

From PubChem BioAssay (NCI) come the findings set out here.

In general, GI50 refers to the concentration at which growth is held to half of that of the control. By TGI is commonly meant the concentration at which net growth stops. Low readings indicate more potent growth arrest, high ones less potent growth arrest.

For the compound `C[C@@H](Oc1cc(-c2cnn(C3CC4(CNC4)C3)c2)cnc1N)c1c(Cl)ccc(F)c1Cl`, the GI50 in the experiment with OVCAR-8 ovarian is 10.4 µM; in the experiment on NCI/ADR-RES ovarian it was 14.9 µM; with HL-60(TB) leukemia, 1.59 µM; in the experiment on HCC-2998 colon, 5.42 µM; in the experiment on HS 578T breast, 3.87 µM; with HOP-92 NSCLC, 0.848 µM. Further, the results for the GI50 in the experiment with MDA-MB-435 and with IGROV1 ovarian were 1.16 µM and 6.64 µM, respectively. Besides, the TGI in the experiment with OVCAR-8 ovarian stood at 24.3 µM; with NCI/ADR-RES ovarian it was 31 µM; in the experiment with HL-60(TB) leukemia, 6.76 µM; in the experiment with HCC-2998 colon, 19.7 µM; in the experiment with HS 578T breast, 27.1 µM; with HOP-92 NSCLC, 5.12 µM. Also, the TGI with MDA-MB-435 was determined as 14.2 µM; with IGROV1 ovarian it was 21.5 µM.

With `CCc1ccc(Oc2nccc(-c3c(-c4ccc(F)cc4)ncn3C3CCNCC3)n2)cc1`, the GI50 was 4.7 µM in the experiment on OVCAR-8 ovarian; 4.69 µM in the experiment on NCI/ADR-RES ovarian; 5.78 µM in the experiment with HL-60(TB) leukemia; 3.94 µM in the experiment on HCC-2998 colon; 7.01 µM in the experiment with HS 578T breast; 1.17 µM in the experiment with HOP-92 NSCLC. For the same compound, the GI50 in the experiment with MDA-MB-435 is 4.47 µM; in the experiment on IGROV1 ovarian it was 4.71 µM. Further, the TGI in the experiment with OVCAR-8 ovarian worked out at 10.6 µM; in the experiment with NCI/ADR-RES ovarian, 12.9 µM; in the experiment on HL-60(TB) leukemia, 11.5 µM; with HCC-2998 colon, 7.61 µM; in the experiment with HS 578T breast, 17.1 µM; with HOP-92 NSCLC, 9.53 µM. The TGI in the experiment on MDA-MB-435 worked out at 8.77 µM; in the experiment on IGROV1 ovarian, 12.1 µM.

With `CC[C@@]1(O)C(=O)OCc2c1cc1n(c2=O)Cc2cc3c(Cl)c4c(cc3nc2-1)OCO4`, the GI50 with OVCAR-8 ovarian was below 0.001 µM; with NCI/ADR-RES ovarian, below 0.001 µM; in the experiment with HL-60(TB) leukemia, below 0.001 µM; with HCC-2998 colon, 0.149 µM and 0.235 µM; with HOP-92 NSCLC, below 0.001 µM; in the experiment with MDA-MB-435 it was 0.0193 µM and 0.0229 µM. For the same compound, the GI50 in the experiment on IGROV1 ovarian was 0.121 µM and 0.285 µM. Moreover, the TGI in the experiment on HL-60(TB) leukemia was 0.00518 µM and 0.0164 µM; with HCC-2998 colon, 6.42 µM; with HS 578T breast it was above 100 µM; in the experiment with HOP-92 NSCLC, 0.0801 µM; in the experiment with MDA-MB-435, above 100 µM; with IGROV1 ovarian, above 100 µM.

Take `O=C(O)CC1C(=O)OC2C3COC(=O)c4cc(O)c(O)c(O)c4-c4c(cc(O)c(O)c4O)C(=O)OC2C(OC(=O)c2cc(O)c(O)c4c2C1C(O)C(=O)O4)C(OC(=O)c1cc(O)c(O)c(O)c1)O3` (stereo unspecified): the total growth inhibition concentration (TGI) in the experiment with OVCAR-8 ovarian was 67.2 µM; with NCI/ADR-RES ovarian it was 46.9 µM; in the experiment on HL-60(TB) leukemia, 30.4 µM; in the experiment on HCC-2998 colon, above 100 µM; with HS 578T breast, above 100 µM; in the experiment with HOP-92 NSCLC, 52.6 µM. Also, the TGI in the experiment with MDA-MB-435 is 83 µM; in the experiment on IGROV1 ovarian it was above 100 µM.

With `O=C1NC(=O)C(N2CCc3ccccc32)=C1c1ccc(Cl)cc1`, the GI50 in the experiment on OVCAR-8 ovarian is above 25 µM; with NCI/ADR-RES ovarian, above 25 µM; in the experiment with HL-60(TB) leukemia it was 24.3 µM; in the experiment on HCC-2998 colon it was above 25 µM; in the experiment with HS 578T breast, above 25 µM; with HOP-92 NSCLC it was 6.38 µM. Moreover, the GI50 with MDA-MB-435 and in the experiment on IGROV1 ovarian was above 25 µM throughout. Moreover, the total growth inhibition concentration (TGI) with OVCAR-8 ovarian, with NCI/ADR-RES ovarian, in the experiment with HL-60(TB) leukemia, in the experiment on HCC-2998 colon, in the experiment with HS 578T breast and in the experiment on HOP-92 NSCLC was above 25 µM in each case. For the same compound, the TGI in the experiment on MDA-MB-435 and in the experiment on IGROV1 ovarian was above 25 µM throughout.

As for `CC(=O)NC1CCCN(O)C(=O)/C=C(/C)CCOC(=O)C(NC(C)=O)CCCN(O)C(=O)/C=C(/C)CCOC(=O)C(NC(C)=O)CCCN(O)C(=O)/C=C(/C)CCOC1=O.[Fe]` (stereo unspecified), the GI50 in the experiment with OVCAR-8 ovarian, in the experiment on NCI/ADR-RES ovarian, in the experiment with HL-60(TB) leukemia, in the experiment on HCC-2998 colon, in the experiment on HS 578T breast and in the experiment with HOP-92 NSCLC was above 100 µM throughout. Further, the GI50 with MDA-MB-435 and in the experiment on IGROV1 ovarian was above 100 µM each time. Also, the TGI in the experiment on OVCAR-8 ovarian, in the experiment with NCI/ADR-RES ovarian, with HL-60(TB) leukemia, in the experiment with HCC-2998 colon, in the experiment with HS 578T breast and in the experiment on HOP-92 NSCLC was above 100 µM each time. The TGI in the experiment with MDA-MB-435 and in the experiment on IGROV1 ovarian was above 100 µM throughout.

Consider `Nc1cccc2c1CN(C1CCC(=O)NC1=O)C2=O` (stereo unspecified), for which the GI50 is above 100 µM in the experiment on OVCAR-8 ovarian; above 100 µM in the experiment with NCI/ADR-RES ovarian; above 100 µM in the experiment with HL-60(TB) leukemia; above 100 µM with HCC-2998 colon; above 100 µM with HS 578T breast; above 34.2 µM with HOP-92 NSCLC. Also, the GI50 in the experiment with MDA-MB-435 and with IGROV1 ovarian was above 100 µM each time. Further, the total growth inhibition concentration (TGI) in the experiment with OVCAR-8 ovarian, with NCI/ADR-RES ovarian, with HL-60(TB) leukemia, in the experiment on HCC-2998 colon, in the experiment on HS 578T breast and with HOP-92 NSCLC was above 100 µM in each case. For the same compound, the total growth inhibition concentration (TGI) in the experiment with MDA-MB-435 and in the experiment on IGROV1 ovarian was above 100 µM in each case.
